Data from US20140194506A1, “Use of Potassium Piperonyl Pentadienoate for Lowering Blood Lipid” (INNER MONGOLIA UNIVERSITY, priority 2011, published 2014).
“And” between values parts separate entries of the source, which are not always exact repeats. Identical values can stand only once.

Columns and labels:
[1] = system: high lipid mode white rats; test: Prophylactic blood lipid lowering in high lipid feed white rats (Example 2); format: in vivo, Wistar male white rats
From the text: High lipid feed formula: cholesterol 3%, lard 10%, sodium cholate 0.5%, basal feed: […] (formula: flour 17.14%, rice flour 8.57%, maize […], bran 21%, fish flour 1.71%, dairy salt 0.857%, vitamin 0.085%, bean material 17.14%).
60 Wistar White male rats of 150±10 g of body weight were fed with common standard feed for 5 days, and then divided into 6 groups randomly. Each group included 10 rats. Group I was a blank group, where the rats were fed with common standard feed. Group II was a high lipid feed mode control group. Group III was a Simvastatin 10 mg/kg group. Group IV was a GB-O group. Group V was a GB-H group. Group VI was a GB-K group. High lipid feed mode control group were fed with high lipid feed together with distilled water. Groups III, IV, V, and VI were fed with high lipid feed together with required simvastatin, GB-O, GB-H, and GB-K suspensions (formulated by grinding with 0.5% sodium […] CMC-Na) respectively. The dosing amount was 0.046 mmol/kg, and the amount of high lipid feed was 20 g per day for each rat. The grouping and the dosing amount for each group can be found in table 1.
(§1) The body weights of white rats were determined and recorded every day. The rats in each group were dosed basing on its body weight by feeding for 14 days at 22° C. of room temperature and 40-50% of relative humidity. On the 14th day, after fasting and freely receiving water for 16 hours, its blood was sampled from aorta, placed for 30 min to blood coagulate, and centrifugated for 15 min at 3000 r/min to separate serum. The values of serum total cholesterol (TC), and triglyceride (TG) were determined on an automatic analyzer using enzymatic colorimetry, the value of high density lipoprotein cholesterol (HDL) was determined using a phosphotungstic acid-Mg precipitation method, and the value of low density lipoprotein cholesterol (LDL) was determined using the polyvinyl sulfate precipitation method.
(§2) All data were treated statistically, and were presented as means±standard deviations (x±s). The significance of difference was judged by T test. The calculation of p value was obtained by comparing the high lipid mode group with the blank control group, and comparing other test drug groups with the high lipid mode group.
(§3) The reaction temperature was 37° C. The cholesterol ester in serum was first hydrolyzed into free cholesterol (FC) and fatty acid with cholesterol ester hydrolase (CEH). Then, all FC in serum was oxidized into ch-4-en-3-one and H2O2 with cholesterol oxidase (COD). The resulting H2O2 was reacted with 4-aminoantipyrine (4-AAP) and 4-chlorophenol in the presence of peroxidase (POD) (Trinder reaction), to yield red quinine imine, which was calorimetrically tested at a 500 nm wavelength.
The reaction temperature was 37° C. The triglyceride ire serum was first hydrolyzed into glycerol and fatty acid with lipoprotein lipase (LPL). The resulting glycerol was reacted with ATP in the presence of glycerol kinase (GK), to produce glycerol-3-phosphate and ADP. The resulting glycerol-3-phosphate was oxidized into dihydroxyacetone phosphate and H2O2 with oxygen in the presence of glycerol phosphate oxidase (GPO). The resulting H2O2 was reacted with 4-aminoantipyrine (4-AAP) and 4-chlorophenol in the presence of peroxidase (POD) (Trinder reaction), to yield red quinine imine, which was colorimetrically determined at a 500 nm wavelength.
The LDL in serum was precipitated using PVS. The serum TC and the Ch in the resulting supernatant were determined using the enzymatic methods described hereinabove, and the LDL-C was calculated by subtracting the Ch from the serum TC. The polyethylene glycol monoether (PEGME) was added in a suitable amount in order to facilitate the precipitation of LDL. […]

[2] = system: high lipid mode white rats; test: Therapeutic blood lipid lowering in hyperlipoidemia mode white rats (Example 3); format: in vivo, Wistar male white rats
From the text: High lipid feed formula: cholesterol 3%, lard 10%, sodium cholate 0.5%, basal feed: 86.5% (formula: flour 17.14%, rice flour 8.57%, maize 17.14%, bran 21%, fish flour 1.71%, dairy salt 0.857%, vitamin 0.085%, bean material 17.14%).
72 Wistar white male rats of 170±10 g of body weight were divided into 6 groups randomly and numbered. Each group included 12 rats. The rats were fed with common standard feed under experimental conditions and observed for 7 days, and its blood was sampled from tail for testing serum total cholesterol (TC). […] From the 8th day, the group I was set as a blank group, and was fed with common standard feed. Other groups were fed with high lipid feed for 8 days in a row, and the blood was sampled from tail on the next day for testing TC. […] The rats then were divided into 5 groups randomly (see table 12) according to TC levels. Each group included 10 rats (10 rats who were unsuccessful blood lipid modes were discarded). The rats were ted with high lipid teed continuously. Group was a high lipid feed mode control group. Group III was a Simvastatin 10 mg/kg group. Group IV was a GB-O group. Group V was a GB-H group. Group VI was a GB-K group. The high lipid feed mode control group was fed with high lipid feed together with distilled water. Groups III, IV, V, and VI were fed with high lipid feed together with required simvastatin, GB-O, GB-H, and GB-K suspensions (formulated by grinding with 0.5% sodium carboxymethycellulose CMC-Na) respectively. The dosing amount was 0.046 mmol/kg, and the amount of high lipid feed was 20 g per day for each rat. The grouping and the dosing amount for each group can be found in table 13.
as §1, with “rats for” for “rats in”, “dosed basing,” for “dosed basing”, “hours, the” for “hours, its”, “coagulate,” for “coagulate, and”, “using a” for “using the”
as §2, with “and are” for “and were”, “as means standard” for “as means±standard”
as §3, with “hydrolase (CEH.)” for “hydrolase (CEH).”, “and H2O2)” for “and H2O2”, “resulting H2O2,” for “resulting H2O2”, “was colarimetrically” for “was calorimetrically”, “at” for “at a”
The reaction temperature was 37° C. The triglyceride in serum was first hydrolyzed into glycerol and fatty acid with lipoprotein lipase (LPL). The resulting glycerol was reacted with ATP in the presence of glycerol kinase (GK), to produce glycerol-3-phosphate and ADP. The resulting glycerol-3-phosphate was oxidized into dihydroxyacetone phosphate and H2O2 with oxygen in the presence of glycerol phosphate oxidase (GPO). […]

[3] = group mean n=10, 15th day after administration
[4] = rats No. 1-10, 0.046 mmol/kg (Simvastatin 10 mg/kg), 15th day after administration

CCC(C)(C)C(=O)O[C@H]1C[C@@H](C)C=C2C=C[C@H](C)[C@H](CC[C@@H]3C[C@@H](O)CC(=O)O3)[C@H]21 [Simvastatin]
Total cholesterol value ([1]; Table 6, mean ± standard deviation, n=10): 13.88 ± 3.27
Triglyceride value ([1]; Table 7, mean ± standard deviation, n=10): 1.22 ± 0.1841 mmol/L
Low density lipoprotein cholesterol ([1]; Table 8, mean ± standard deviation, n=10): 4.223 ± 0.9989 mmol/L
High density lipoprotein cholesterol ([1]; Table 9, mean ± standard deviation, n=10): 0.331 ± 0.0767 mmol/L
serum total cholesterol (TC) contents, Mean ([1]; group mean n=10, 0.046 mmol/kg (Simvastatin 10 mg/kg), 15th day after administration): 13.88 mmol/L
serum high density lipoprotein cholesterol (HDL) contents, Mean [1, 3]: 0.33 mmol/L
serum low density lipoprotein cholesterol (LDL) contents, Mean [1, 3]: 4.22 mmol/L
serum triglyceride (TG) contents, Mean [1, 3]: 1.22 mmol/L
serum high density lipoprotein cholesterol (HDL) contents, individual rats [1, 4]: 0.26 mmol/L and 0.29 mmol/L and 0.31 mmol/L (2×) and 0.47 mmol/L and 0.39 mmol/L and 0.24 mmol/L and 0.33 mmol/L and 0.43 mmol/L and 0.28 mmol/L
serum low density lipoprotein cholesterol (LDL) contents, individual rats [1, 4]: 5.81 mmol/L and 4.98 mmol/L and 5.32 mmol/L and 3.73 mmol/L and 5.14 mmol/L and 3.99 mmol/L and 3.33 mmol/L and 3.37 mmol/L and 3.63 mmol/L and 2.93 mmol/L
serum triglyceride (TG) contents, individual rats [1, 4]: 1.12 mmol/L and 1.53 mmol/L and 0.93 mmol/L and 1.36 mmol/L and 1.26 mmol/L and 1.00 mmol/L and 1.19 mmol/L and 1.23 mmol/L and 1.31 mmol/L and 1.28 mmol/L
serum total cholesterol (TC) contents, individual rats ([1]; rats No. 1-10, high lipid feed plus drug 14 days, 0.046 mmol/kg (Simvastatin 10 mg/kg), 15th day after administration): 19.21 mmol/L and 14.11 mmol/L and 12.51 mmol/L and 11.11 mmol/L and 9.19 mmol/L and 11.57 mmol/L and 10.31 mmol/L and 15.62 mmol/L and 13.60 mmol/L and 18.06 mmol/L
Total cholesterol value ([2]; Table 18, mean ± standard deviation, n=10): 9.59 ± 1.50
Triglyceride value ([2]; Table 19, mean ± standard deviation, n=10): 2.62 ± 0.54 mmol/L
Low density lipoprotein cholesterol ([2]; Table 20, mean ± standard deviation, n=10): 2.90 ± 0.67 mmol/L
High density lipoprotein cholesterol ([2]; Table 21, mean ± standard deviation, n=10): 0.75 ± 0.20 mmol/L
serum high density lipoprotein cholesterol (HDL) contents, Mean [2, 3]: 0.75 mmol/L
serum low density lipoprotein cholesterol (LDL) contents, Mean [2, 3]: 2.90 mmol/L
serum total cholesterol (TC) contents, Mean [2, 3]: 9.59 mmol/L
serum triglyceride (TG) contents, Mean [2, 3]: 2.62 mmol/L
serum high density lipoprotein cholesterol (HDL) contents, individual rats [2, 4]: 1.11 mmol/L and 0.93 mmol/L and 0.58 mmol/L and 0.67 mmol/L and 0.37 mmol/L and 0.81 mmol/L and 0.77 mmol/L and 0.92 mmol/L and 0.66 mmol/L and 0.72 mmol/L
serum low density lipoprotein cholesterol (LDL) contents, individual rats [2, 4]: 2.51 mmol/L and 2.84 mmol/L and 2.67 mmol/L and 3.38 mmol/L and 1.97 mmol/L and 2.37 mmol/L and 3.71 mmol/L and 4.12 mmol/L and 3.12 mmol/L and 2.36 mmol/L
serum triglyceride (TG) contents, individual rats [2, 4]: 1.95 mmol/L and 3.67 mmol/L and 2.38 mmol/L and 2.08 mmol/L and 2.27 mmol/L and 3.27 mmol/L and 2.67 mmol/L and 2.36 mmol/L and 2.68 mmol/L and 2.96 mmol/L
serum total cholesterol (TC) contents, individual rats ([2]; rats No. 1-10, hyperlipoidemia mode, drug 14 days, 0.046 mmol/kg (Simvastatin 10 mg/kg), 15th day after administration): 7.61 mmol/L and 9.38 mmol/L and 8.81 mmol/L and 8.39 mmol/L and 12.67 mmol/L and 10.34 mmol/L and 9.37 mmol/L (2×) and 8.61 mmol/L and 11.34 mmol/L
